Source: patent US9126966B2, “Cationic lipids and methods of use thereof” (Protiva Biotherapeutics, Inc., priority 2011, dated 2015)

Test system: Liver ApoB mRNA
Assay: Liver ApoB mRNA knockdown after IV injection of LNP formulations, branched DNA assay (QuantiGene) relative to GAPDH
Type: in vivo, female Balb/c mice
Conditions: 1:57 LNP with ApoB siRNA; for ApoB knockdown relative to PBS control: IV 0.033 mg/kg total siRNA, standard deviation in brackets; for ApoB knockdown relative to PBS control / ApoB knockdown relative PBS control: liver mRNA at 48 hours; for ApoB-silencing activity of LNP formulations (in words): IV 0.033 mg/kg, summary of Table 3
Experimental: (§1) LNP formulations were administered by IV injection at 0.033 mg/kg total siRNA dose into female Balb/c mice (n=3 per group). Liver ApoB mRNA levels were evaluated at 48 hours after LNP administration by a branched DNA assay (QuantiGene assay) to assess ApoB mRNA relative to the housekeeping gene GAPDH.
as §1, with “intravenous” for “IV”, “doses of 0.0075, 0.015 and 0.03” for “0.033”, “evaluated” for “evaluated at”, “and standardized” for “to assess ApoB mRNA”

| SMILES | ApoB knockdown relative to PBS control | ApoB-silencing activity of LNP formulations (in words) | ApoB knockdown relative PBS control (IV 0.0075 mg/kg total siRNA) | ApoB knockdown relative PBS control (IV 0.015 mg/kg total siRNA) | ApoB knockdown relative PBS control (IV 0.03 mg/kg total siRNA) | Potency of LNP formulations compared with reference lipid (in words) (IV 0.0075, 0.015 and 0.03 mg/kg, summary of Table 5) |
| --- | --- | --- | --- | --- | --- | --- |
| CCCCC/C=C\C/C=C\CCCCCCCCC1CC(CCCCCCC/C=C\C/C=C\CCCCC)OC(CCN(C)C)O1 (centres unmarked) [Compound 8, 2-(4-((8Z,11Z)-heptadeca-8,11-dien-1-yl)-6-((9Z,12Z)-octadeca-9,12-dien-1-yl)-1,3-dioxan-2-yl)-N,N-dimethylethanamine] | −71 (±2.7) % | particularly potent ApoB-silencing activity |  |  |  |  |
| CCCCC/C=C\C/C=C\CCCCCCCCC1CC(CCCCCCC/C=C\C/C=C\CCCCC)OC(CCCN(C)C)O1 (centres unmarked) [Compound 9, 3-(4-((8Z,11Z)-heptadeca-8,11-dien-1-yl)-6-((9Z,12Z)-octadeca-9,12-dien-1-yl)-1,3-dioxan-2-yl)-N,N-dimethylpropan-1-amine] | −80 (±3.3) % | particularly potent ApoB-silencing activity | −39% | −51% | −73% | more potent than LNP formulations containing C2K |
| CCCCC/C=C\C/C=C\CCCCCCCCC1(CCCCCCCC/C=C\C/C=C\CCCCC)OCC(CCN(C)C)O1 (centres unmarked) [Compound C2K, 2,2-dilinoleyl-4-(2-dimethylaminoethyl)[1,3]-dioxolane, reference compound] |  |  | −25% | −41% | −54% |  |
